Several values for one entry are separate records, joined by “and”; a condition that tells them apart may be missing. Identical values can stand only once.
How the values were obtained:
[1] = target: recombinant human galectin-1 (Homo sapiens, UniProt P09382); test: SPR (BIAcore) equilibrium binding to immobilized galectin-1; set-up: key to Galectin-1 binding, KD: NB: non-binder; settings: for Kd / Galectin-1 binding, KD: SPR steady state affinity fit, Table I; for Kd: read-out: Galectin-1 binding, KD; for binding to galectin-1 (in words): SPR assay
Sequence of recombinant human galectin-1 (P09382 whole entry): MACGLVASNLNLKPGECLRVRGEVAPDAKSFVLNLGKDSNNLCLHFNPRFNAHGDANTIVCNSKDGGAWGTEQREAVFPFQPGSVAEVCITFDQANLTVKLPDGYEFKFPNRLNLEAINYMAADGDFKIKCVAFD
Description: (§1) Galectin binding affinity measurements were performed in a surface plasmon resonance (SPR) assay using […] instrument (BIAcore, Inc, Uppsala, Sweden). PBS with 5 mM β-mercaptoethanol was used as running buffer for all experiments. Purified recombinant human galectin-1 and galectin-4 were immobilized at different surface densities on CM5 carboxymethyldextran chip (BIAcore) in the presence of 150 mM lactose, using standard amine coupling chemistry. Galectin immobilization was performed at 5 μl/min flow rate. To ensure the maximum possible immobilization of recombinant proteins, carboxylmethyldextran surface was activated with a 15 min pulse of a mixture of 0.05 M N-hydroxysuccinimide (NHS) with 0.2 M N-ethyl-N′-(dimethylaminopropyl) carbodiimide (EDC). Recombinant galectins, diluted to 30 μg/ml in 10 mM Na Acetate buffer (pH 4.8 for galectin-1 and pH 5.5 for galectin-4) were coupled to the surface during a 15-minute injection. Following galectin injection, remaining activated groups on the surface of the chip were deactivated with a 7 min pulse of 1 M ethanolamine hydrochloride, pH 8.5. Blank, unmodified CM5 surface was used as a negative control for the corrections for refractive index changes due to the presence of lactulosamines.
(§2) Binding of lactulosamines was performed at 80 μl/min flow rate, with injection times of 15 sec. […] Instead, the equilibrium binding levels were examined and determined the equilibrium binding constant using steady state affinity fitting model (BIAevaluation software version 3.1).

[2] = target: T1, recombinant human galectin-4 (Homo sapiens, UniProt P56470); test: SPR (BIAcore) equilibrium binding to immobilized galectin-4; set-up: key to Galectin-4 binding, KD: NB: non-binder; settings: for Kd / Galectin-4 binding, KD: SPR steady state affinity fit, Table I; for Kd: read-out: Galectin-4 binding, KD; for binding to galectin-4 (in words): SPR assay
T1 construct: cDNA encoding full-length human galectin-4 was amplified from an EST clone; made in house; host or cells: E. coli BL21 (DE3)pLysS
T1 sequence (P56470 1-323): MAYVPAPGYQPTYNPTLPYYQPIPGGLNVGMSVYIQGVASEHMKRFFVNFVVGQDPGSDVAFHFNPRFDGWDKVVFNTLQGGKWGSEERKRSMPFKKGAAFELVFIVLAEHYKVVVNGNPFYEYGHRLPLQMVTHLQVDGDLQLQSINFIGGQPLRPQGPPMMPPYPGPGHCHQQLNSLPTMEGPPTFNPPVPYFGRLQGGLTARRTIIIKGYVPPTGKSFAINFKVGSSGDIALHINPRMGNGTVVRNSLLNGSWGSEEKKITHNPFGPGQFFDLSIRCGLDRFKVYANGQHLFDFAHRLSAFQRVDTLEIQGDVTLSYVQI
Description: as §1, §2

[3] = target: galectin-1 binding to 90K/MAC-2BP (Homo sapiens, UniProt P09382); test: ELISA, inhibition of galectin-1 binding to immobilized 90K; settings: for inhibition of binding of galectin-1 to 90K: at 156 μM, galectin-1 2.5 μg/ml (0.17 μM)
Sequence of galectin-1 binding to 90K/MAC-2BP (P09382 2-135 limits assumed): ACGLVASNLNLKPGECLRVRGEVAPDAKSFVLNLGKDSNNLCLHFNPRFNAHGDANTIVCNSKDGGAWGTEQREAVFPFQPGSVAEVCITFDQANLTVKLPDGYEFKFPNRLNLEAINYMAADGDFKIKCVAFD
Description: (§3) Human 90K/MAC-2BP (thereafter called 90K) was purified from transfected EBNA-293 cells (lurisci, I., et al., Clin. Cancer Res. (2000) 6:1389-1393). Laminin was obtained from Boehringer Mannheim GmbH (Germany). The ELISA for galectin binding has been previously described (Tinari, N., et al., Int. J. Cancer (2001) 91:167-172). Briefly, Nunc Maxisorb microtiter wells were coated with 0.5 μg/well of 90K or laminin. Recombinant galectin-1 (2.5 μg/ml or 0.17 μM) was diluted in PBS with 0.1% Tween-20 and added to wells coated with glycoproteins, and galectin-1 binding was detected with anti-galectin-1 rabbit antiserum. In binding-inhibition experiments, recombinant galectin-1 was diluted in PBS-0.1% Tween-20 containing indicated concentration of lactulosamines or lactose.

[4] = target: galectin-1 binding to laminin (Homo sapiens, UniProt P09382); test: ELISA, inhibition of galectin-1 binding to immobilized laminin; settings: for inhibition of binding of galectin-1 to laminin: at 156 μM, galectin-1 2.5 μg/ml (0.17 μM)
Sequence of galectin-1 binding to laminin (P09382 2-135 limits assumed): as above
Description: as §3

CD8+ CTL clone [5] = test: CD8+ CTL clone survival after TF peptide stimulation, with galectin-1 and inhibitors; assay type: cell-based
Source text: The ability of L2hmda to restore this activity is especially significant since TDG, a known galectin inhibitor, is toxic. However, L2hmda is not toxic. […] The CD8+ CTL clone was stimulated with TF peptide for 4 days and cell survival (% of starting number) measured by enumerating viability by trypan blue exclusion.

CD8+ CTL clone [6] = test: Cytokine production by CD8+ CTL clone after TF peptide stimulation, with galectin-1 and inhibitor; assay type: cell-based; settings: supernatants 48 hr after stimulation; galectin-1 0-7 uM
Description: Treatment in vitro of CD4+ and CD8+T cells with recombinant soluble galectin-1 inhibits their survival and ability to secrete cytokine, such as interferon-γ and IL-2. […] In FIG. 10A, cells are stimulated by TF peptide and the levels of interferon-γ produced measured in nanogram/milliliter (ng/ml). As shown, galectin-1 inhibits interferon-γ secretion in a dose-dependent manner. […] Similar data were seen when another cytokine, IL-2, was measured (not shown).

[7] = Toxicity statement on galectin inhibitors

Compound: O=C(O)CNCC(=O)C(O)C(OC1OC(CO)C(O)C(O)C1O)C(O)CO (stereo not shown) [Lactulose-glycine]
- Kd [1]: 102 µM
- Kd [2]: 790 µM
- inhibition of binding of galectin-1 to 90K [3]: about 20%
- inhibition of binding of galectin-1 to laminin [4]: ~10%

Compound: OC[C@H]1O[C@@H](O[C@H]2[C@H](O)[C@@H](O)[C@H](O)O[C@@H]2CO)[C@H](O)[C@@H](O)[C@H]1O [β-lactose, reference compound]
- binding to galectin-1 (in words) [1]: able to bind
- binding to galectin-4 (in words) [2]: able to bind
- inhibition of galectin-1 binding to 90K (in words) ([3]; ELISA, FIG. 9A): inhibited
- inhibition of binding of galectin-1 to 90K [3]: about 20%
- inhibition of galectin-1 binding to laminin (in words) ([4]; ELISA, FIG. 9B): inhibited
- inhibition of binding of galectin-1 to laminin [4]: ~10%

Compound: galectin-1: recombinant soluble galectin-1, immunosuppressive lectin added to T cells
- death of T cells (CD8+ CTL clone [5]; over the 4 day period, trypan blue exclusion): 90%
- IFN-γ production (ELISA) (CD8+ CTL clone [6]): suppressed in a dose dependent fashion

Compound: OC[C@H]1O[C@@](CO)(O[C@H]2O[C@H](CO)[C@@H](O)[C@H](O)[C@H]2O)[C@@H](O)[C@@H]1O [Sucrose, reference compound]
- binding to galectin-1 (in words) [1]: unable to bind
- Galectin-1 binding, KD [1]: NB
- binding to galectin-4 (in words) [2]: unable to bind
- Galectin-4 binding, KD [2]: NB

Compound: CC(NCC(=O)C(O)C(OC1OC(CO)C(O)C(O)C1O)C(O)CO)C(=O)O [Lactulose-L-alanine]
- Kd [1]: 150 µM
- Kd [2]: 1490 µM and 1720 µM

Compound: OC[C@H]1O[C@H](O[C@H]2[C@H](O)[C@@H](O)[C@H](O)O[C@@H]2CO)[C@H](O)[C@@H](O)[C@@H]1O [Maltose, reference compound]
- binding to galectin-1 (in words) [1]: unable to bind
- Galectin-1 binding, KD [1]: NB
- binding to galectin-4 (in words) [2]: unable to bind
- Galectin-4 binding, KD [2]: NB

Compound: fructose-D-leucine
- binding to galectin-1 (in words) [1]: did not
- binding to galectin-1 (in words) ([1]; listed as fructose coupled to leucine): unable to bind
- Galectin-1 binding, KD [1]: NB
- binding to galectin-4 (in words) [2]: unable to bind
- Galectin-4 binding, KD [2]: NB

Compound: CC(O)C(NCC(=O)C(O)C(OC1OC(CO)C(O)C(O)C1O)C(O)CO)C(=O)O [Lactulose-L-threonine]
- Kd [1]: 376 µM
- Kd [2]: 3830 µM

Compound: O=C(O)CCCNCC(=O)C(O)C(OC1OC(CO)C(O)C(O)C1O)C(O)CO [Lactulose-L-GABA]
- Kd [1]: 106 µM
- Kd [2]: 1040 µM

Compound: CC(C)CC(NCC(=O)C(O)C(OC1OC(CO)C(O)C(O)C1O)C(O)CO)C(=O)O [Lactulose-D-leucine]
- Kd [1]: 128 µM and 223 µM
- Kd [2]: 770 µM and 880 µM and 1090 µM

Compound: OC[C@H]1O[C@@H](S[C@@H]2O[C@H](CO)[C@H](O)[C@H](O)[C@H]2O)[C@H](O)[C@@H](O)[C@H]1O [TDG, thiodigalactolate, reference compound]
- prevention of cell death induced by galectin-1 (CD8+ CTL clone [5]; 4 days, trypan blue exclusion, FIG. 10B): prevented the majority of cell death
- restoring the ability of CTL's to proliferate (CD8+ CTL clone [5]; in presence of galectin-1, FIG. 10B): able to restore
- toxicity [7]: toxic

Compound: CC(NCC(=O)C(O)C(OC1OC(CO)C(O)C(O)C1O)C(O)CO)C(=O)O [Lactulose-D-alanine]
- Kd [1]: 133 µM
- Kd [2]: 1010 µM

Compound: O=C(O)C(Cc1ccccc1)NCC(=O)C(O)C(OC1OC(CO)C(O)C(O)C1O)C(O)CO [Lactulose-L-phenylalanine]
- Kd [1]: 200 µM
- Kd [2]: 1090 µM and 1260 µM

Compound: CC(C)C(NCC(=O)C(O)C(OC1OC(CO)C(O)C(O)C1O)C(O)CO)C(=O)O [Lactulose-L-valine]
- Kd [1]: 158 µM
- Kd [2]: 719 µM and 730 µM

Compound: O=C(O)C(Cc1c[nH]cn1)NCC(=O)C(O)C(OC1OC(CO)C(O)C(O)C1O)C(O)CO [Lactulose-L-histidine]
- Kd [1]: 191 µM
- Kd [2]: 2280 µM

Compound: O=C(CN1CCCC1C(=O)O)C(O)C(OC1OC(CO)C(O)C(O)C1O)C(O)CO [Lactulose-L-proline]
- Kd [1]: 70 µM
- Kd [2]: 530 µM
- inhibition of binding of galectin-1 to 90K [3]: about 50%
- inhibition of binding of galectin-1 to laminin [4]: ~40%

Compound: CSCCC(NCC(=O)C(O)C(OC1OC(CO)C(O)C(O)C1O)C(O)CO)C(=O)O [Lactulose-L-methionine]
- Kd [1]: 127 µM
- Kd [2]: 1270 µM

Compound: CCC(C)C(NCC(=O)C(O)C(OC1OC(CO)C(O)C(O)C1O)C(O)CO)C(=O)O [Lactulose-L-isoleucine]
- Kd [1]: 129 µM
- Kd [2]: 550 µM
